In article PMC7221482 (Neurochemistry international, 2019):
Structures can show the parent of a compound that is named as a salt. Where two headings read alike, the source gives them in different places.

Assays:
hα3β4 AChRs = hα3β4 AChRs (Homo sapiens, UniProt P30926+P32297); type: cell-based
hα4β2 AChRs = hα4β2 AChRs (Homo sapiens, UniProt P17787+P43681); type: cell-based
hα7 AChRs = hα7 AChRs (Homo sapiens, UniProt P36544); type: cell-based
rα9α10 AChRs = rα9α10 AChRs (Rattus norvegicus, UniProt P43144+Q9JLB5); type: cell-based
habenular mα3β4* AChRs = habenular mα3β4* AChRs (Mus musculus, UniProt Q8R493+Q8R4G9); experiment: Patch-clamp recordings of ACh-evoked currents from MHb; type: cell-based
[1] = target: T1, hα3β4 AChRs ([3H]imipramine sites) (Homo sapiens, UniProt P30926+P32297); experiment: [3H]Imipramine competition binding to hα3β4 AChR-containing membranes
[2] = target: T2, hα4β2 AChRs ([3H]imipramine sites) (Homo sapiens, UniProt P17787+P43681); experiment: [3H]Imipramine competition binding to hα4β2 AChR-containing membranes
[3] = target: T1, hα3β4 AChRs ([3H]imipramine sites); settings: ref Arias et al., cited from earlier work
[4] = target: T2, hα4β2 AChRs ([3H]imipramine sites); settings: read-out: Kd (dissociation constant), ref Arias et al., 2010b; cited from earlier work
[5] = desensitized state, [3H]imipramine competition

CN(C)CCCC1(c2ccc(F)cc2)OCc2cc(C#N)ccc21 (racemic) [(±)-citalopram, 1-[3-(dimethylamino)propyl]-1-(4-fluorophenyl)-1,3-dihydro-5-isobenzofurancarbonitrile]
IC50 (hα3β4 AChRs): 5.1 ± 1.3 µM
nH (Hill coefficient) (hα3β4 AChRs; inhibition of (±)-epibatidine-induced Ca2+ influx, HEK293-hα3β4 cells): 1.00 ± 0.10
IC50 (hα4β2 AChRs): 19.1 ± 4.2 µM
nH (Hill coefficient) (hα4β2 AChRs; inhibition of (±)-epibatidine-induced Ca2+ influx, HEK293-hα4β2 cells): 1.24 ± 0.19
IC50 (hα7 AChRs): 18.8 ± 1.1 µM
nH (Hill coefficient) (hα7 AChRs; inhibition of (±)-epibatidine-induced Ca2+ influx, GH3-hα7 cells): 1.44 ± 0.22
IC50 (rα9α10 AChRs): 7.5 ± 0.9 µM
increase of the ACh EC50 value (rα9α10 AChRs; 8.0 μM (±)-citalopram, p = 0.0001): 7.5 fold
nH (Hill coefficient) (rα9α10 AChRs; inhibition of 10 μM ACh-evoked rα9α10 currents, Xenopus oocytes): 1.35 ± 0.10
inhibition at 10 µM (rα9α10 AChRs; read-out: inhibition of ACh responses, 10 μM (±)-citalopram, 10 μM ACh, +40 mV): 43.3 ± 4.9%
inhibition at 10 µM (rα9α10 AChRs; read-out: inhibition of ACh responses, 10 μM (±)-citalopram, 10 μM ACh, −90 mV): 46 ± 4.7%
IC50 (habenular mα3β4* AChRs; IC50(0), ligand concentration to produce 50% inhibition at 0 mV, one-site blocking model, Eq. (1)): 92 µM
IC50 (habenular mα3β4* AChRs; IC50, inhibition of 100 μM ACh puff-evoked currents, MHb (VI) neurons): 7.6 ± 1 µM
Ki [1]: 1.8 ± 0.1 µM
nH (Hill coefficient) [1, 5]: 0.74 ± 0.04
Ki [2]: 4.1 ± 0.3 µM
Ki ([2]; Ki (binding affinity), resting state, in the presence of 0.1 κ-bungarotoxin): 5.9 ± 0.4 µM
nH (Hill coefficient) [2, 5]: 0.72 ± 0.03

CC(=O)OCC[N+](C)(C)C [ACh, acetylcholine]
nH of ACh (rα9α10 AChRs; No (±)-citalopram): 0.98 ± 0.2
nH of ACh (rα9α10 AChRs; in the presence of 8.0 μM (±)-citalopram): 1.11 ± 0.6

CN(C)CCCN1c2ccccc2CCc2ccccc21 [[^3H]imipramine, [^3H]Imipramine hydrochloride]
Kd ([3]; read-out: Kd (dissociation constant), hα3β4 AChRs, 2010c): 0.41 µM
Kd [4]: 0.83 µM

CNCCC(Oc1ccc(C(F)(F)F)cc1)c1ccccc1 (centres unmarked) [fluoxetine]
Ki ([3]; hα3β4 AChR, [3H]imipramine sites, 2010a): 4.8 ± 0.5 µM
